# Where two headings read alike, the source gives them in different places. Square brackets hold non-standard residues; d marks the D form. Ends that are not written are not given here. Peptide text beside a SMILES is read from it. * marks the point of attachment. Dip = N[C@H](C(=O)O)C(c1ccccc1)c1ccccc1; Cbz = O=C(OCc1ccccc1)*; CH2F = FC*
# Assays:
# [1] = system: MCA205 cells; test: LDH release assay in MCA205 cells; format: cell-based, murine; details: MCA205, 6 hours
# Description: (§1) FIG. 3A is a graph of cell viability of 4T1 murine triple negative breast cancer cells (TNBC) after 100 μM or 20 μM CKS1 treatment measured by real-time cell analyzer (RTCA). Means±SEM, representative of N=3. FIG. 3B is a graph of lactate dehydrogenase (LDH) release in 4T1 cells pre-treated with 50 μM pan-caspase inhibitor Z-VAD for 30 minutes or 50 μM RIPK1 inhibitor Nec-1s for 30 minutes then treated with 100 μM CKS1 for 6 hours. LDH release in the supernatant was measured by the CyQUANT LDH cytotoxicity assay. Means±SEM, N=3, Dunnett's test (***p<0.005). FIGS. 3C-3G are graphs of LDH release in human osteosarcoma U2OS cells, murine fibrosarcoma MCA205 cells, murine colon carcinoma CT26 cells, murine normal NIH/3T3 fibroblasts, and HUVECs, respectively, treated with the indicated concentration of CKS1 for 6 hours. The release of LDH in the supernatant was measured and was normalized to the amount of LDH released from cells treated with lysis buffer. Means±SEM, N=3, Dunnett's test (**p<0.01, ***p<0.005). FIG. 3H is a graph of the incorporation of BrdU in HUVECs treated with CKS1. Means±SEM, N=3, Dunnett's test (**p<0.01, ***p<0.005).
# (§2) LDH assay 1.5×10^4 cells were seeded in a 96 well plate and incubated overnight. The cells were washed once, and the medium was replaced with serum free media. Cells were treated for the indicated time and concentration. […]
# [2] = system: U2OS cells; test: LDH release assay in U2OS cells; format: cell-based, human; details: 6 hours
# Description: as §1, §2
# [3] = Solubility in water; format: physicochemical; details: data not shown
# Description: Peptides The peptides were synthesized by Genscript (Piscataway, NJ) using a solid-phase peptide synthesis technique. The purity was >90% as verified by HPLC and MS analyses. The peptides were solubilized in water.
# [4] = system: HUVECs; test: LDH release assay in HUVECs; format: cell-based, human; details: 6 hours
# Description: as §1, §2
# [5] = system: CT26 cells; test: LDH release assay in CT26 cells; format: cell-based, murine; details: CT26, 6 hours
# Description: as §1, §2
# [6] = system: NIH/3T3 normal fibroblasts; test: LDH release assay in NIH/3T3 cells; format: cell-based, murine; details: 6 hours
# Description: as §1, §2
# [7] = other reported oncolytic peptides; cited from earlier work
# [8] = system: healthy cells; test: LDH assay against cancer cells not included in NCI-60 and healthy cells; format: cell-based
# Description: LDH assay 1.5×10^4 cells were seeded in a 96 well plate and incubated overnight. The cells were washed once, and the medium was replaced with serum free media. Cells were treated for the indicated time and concentration. CyQUANT LDH cytotoxicity assay (Invitrogen, Carlsbad, CA) was used following the manufacturer's instructions.
# [9] = system: 4T1 cells; test: LDH release assay (CyQUANT) in 4T1 cells; format: cell-based, murine; details: pre-treated 50 μM inhibitor 30 minutes, then 100 μM CKS1 6 hours
# Description: FIG. 3A is a graph of cell viability of 4T1 murine triple negative breast cancer cells (TNBC) after 100 μM or 20 μM CKS1 treatment measured by real-time cell analyzer (RTCA). Means±SEM, representative of N=3. FIG. 3B is a graph of lactate dehydrogenase (LDH) release in 4T1 cells pre-treated with 50 μM pan-caspase inhibitor Z-VAD for 30 minutes or 50 μM RIPK1 inhibitor Nec-1s for 30 minutes then treated with 100 μM CKS1 for 6 hours. LDH release in the supernatant was measured by the CyQUANT LDH cytotoxicity assay. Means±SEM, N=3, Dunnett's test (***p<0.005). […] The release of LDH in the supernatant was measured and was normalized to the amount of LDH released from cells treated with lysis buffer. […]
# FIG. 5A is a graph of the release of LDH in the supernatant measured after treating 4T1 cells with 100 μM of the indicated peptides for 6 hours. […]
# To determine whether CKS1 functions as an oncolytic peptide, the cell viability of 4T1 murine breast cancer cells was observed after CKS1 treatment using xCELLigence Real-Time Cell Analyzer (Agilent). In this method, the binding of cells to gold electrodes is detected as electrical impedance and graphed as arbitrary units of cell index in real time. […] The release of lactate dehydrogenase (LDH) was also quantified in the culture media after CKS1 treatment. […]
molecule,measurement,setting,value
NGRKACLNPASPIVKKIIEKMLNS [CKS1],cytotoxicity (LDH release),[1],effective
same,cytotoxicity (LDH release),[2],effective
same,solubility in water,[3],high solubility in water
same,cell death (LDH release) in normal cells,[4],did not induce cell death
same,cytotoxicity (LDH release),[5],effective
same,cell death (LDH release) in normal cells,[6],did not induce cell death
"IVKKIIEKMLNS [SEQ ID NO: 42, IVKKIIEKMLNS]",solubility in water,[3],not soluble in water
NCCCC[C@H](NC(=O)[C@@H](NC(=O)[C@H](Cc1c[nH]c2ccccc12)NC(=O)[C@H](CCCCN)NC(=O)[C@H](CCCCN)NC(=O)[C@H](Cc1c[nH]c2ccccc12)NC(=O)[C@H](Cc1c[nH]c2ccccc12)NC(=O)[C@H](CCCCN)NC(=O)[C@@H](N)CCCCN)C(c1ccccc1)c1ccccc1)C(N)=O [LTX-315] (H-KKWWKKW[Dip]K-NH2),solubility in water,[7],not soluble in water
NGRKAKLNPASIVKKIIKKILKS [NF27],toxicity against healthy cells compared to cancer cells,[8],significantly lower toxicity
"CN1C(=O)NC(Cc2c[nH]c3c(Cl)cccc23)C1=O (centres unmarked) [Nec-1s, necrostatin-1 stable]",inhibition of CKS1-induced LDH release by pretreatment,[9],did not inhibit the release of LDH
CC(NC(=O)C(NC(=O)OCc1ccccc1)C(C)C)C(=O)NC(CC(=O)O)C(=O)CF (stereo not drawn) [Z-VAD] (Cbz-Val-Ala-Asp-CH2F; configuration not given here),inhibition of CKS1-induced LDH release by pretreatment,[9],did not inhibit the release of LDH
